This is an account of results in patent US20240408064A1, “RAS INHIBITORS, COMPOSITIONS AND METHODS OF USE THEREOF” (GENETOLEAD INC., priority 2021, published 2024).

Common to all, as to type: binding
In experiment [1] the target is T1, HRas^G12V (Homo sapiens (Human), UniProt P01112, G12V). As to the kind of experiment: Dissociation constant by NMR (1H/15N Fast-HSQC, 1H 1D protein-observed). As to conditions: HRas^G12V; read-out: NMR Kd. How it is done:
All NMR experiments were collected using 3 mm NMR tubes on a 600 MHz Bruker Avance III spectrometer equipped with a QCI helium cryoprobe and a SampleJet sample changer. The buffer used for NMR experiments was 25 mM sodium phosphate pH 7.4, 150 mM NaCl, 5 mM MgCl2, 1 mM TCEP-d16, 10% D2O. Data were processed using Bruker TopSpin.
(§1) ^1H/^15N Fast-HSQC experiments (Mori et al., Journal of Magnetic Resonance, Series B, Volume 108, Issue 1, July 1995, Pages 94-98) were recorded at a protein concentration of 50-100 μM.
(§2) Dissociation constants were obtained by monitoring changes in chemical shifts as a function of ligand concentration. The changes in chemical shifts (d) were calculated according to the following equation (Williamson, Progress in Nuclear Magnetic Resonance Spectroscopy, Volume 73, August 2013, Pages 1-16): d=√(1/2[δ_H^2+[…]]), Where δ are the changes in chemical shift in ppm for ^1H and ^15N and the correction factor (α) was set at 0.15.
(§3) ^1H 1D protein-observed experiments were recorded with 15-50 μM protein. The standard Bruker 1D ^1H sequence with excitation sculpting (zgesgp) was employed. A relaxation delay of 1 s was employed in order to use 256 scans while still keeping experimental time fairly short. Changes in protein chemical shift or peak intensity in the methyl region were monitored against compound concentration.

Experiment [2] concerns the target T2, wild type HRAS (Homo sapiens (Human), UniProt P01112). In words: 19F T2-CPMG score, wild type HRAS. How it is done: (§4) Since the fragment library was curated using phosphate buffer, 25 mM sodium phosphate pH 7.4, 150 mM NaCl, 5 mM MgCl2, 1 mM TCEP-d16, 10% D2O Fresh TCEP was used for experiments. Screening was performed using ^1H-decoupled 1D ^19F experiment Bruker experiment (zgfhigqn.2) with 64 scans and a relaxation delay of 5 seconds. 50 μM HRas^G12V and 240 μM of each fragment in pools (mixtures) were used.
(§5) Hit confirmation was performed using the same ^19F experiment as the screen. Ligand-observed 1D ^1H, protein-observed 1D ^1H, ^1H T2-CPMG as well as Saturation Transfer Difference (STD) experiments were also run on the same samples. Ligand-observed 1D ^1H was run using the standard Bruker sequence with excitation sculpting (zgesgp) with a relaxation delay of 10 seconds and 16 scans per spectrum. Protein-observed 1D ^1H was performed using the same sequence with a relaxation delay of 1 second and 256 scans in order to increase the signal-to-noise of the protein resonances, while keeping the experimental time relatively short. The ^1H T2-CPMG experiment employed a modified version of the Bruker 1D ^1H zgesgp experiment with the addition of a CPMG pulse train after the first 90° excitation pulse. Total duration for each spin echo was fixed at 1 ms (τ=500 μs), while the number of echoes in the pulse train was varied according to the total time (T). The number of scans for each spectrum was 4 and eight delay times were run on each sample, ranging from 1 ms to 800 ms.
(§6) The activity of compounds of the invention regarding wild type HRAS was measured in the same as in Example 80. The results obtained with the compounds in the various assays described above are depicted in Table 2.

Experiment [3] addresses T1, HRas^G12V. In words: Dissociation constant by SPR. How it is done: SPR experiments were performed using the P4SPR from Affinité Instruments using Ni-NTA immobilization chips and his-tagged protein. Ni-NTA coated surfaces allow the immobilization of his-tagged proteins by chelation of histidine residues to the nickel ion. The sensor chip was inserted into a quad inlet model P4SPR (with 4 independent channels). Once the instrument was turned on, the baseline was stabilized by deionized (DI) water, followed by signal stabilization by the running buffer. His-tagged protein at 10 μg/mL was injected into all 4 channels of the P4SPR and was left to react for 20 min. The sensor chip was then washed with DI water. The lowest concentration of the ligand was injected into the channels of the P4SPR and was left to react for 10 min. The SPR shift was saved. Then, a higher concentration of the ligand was injected, and the sample injection steps were repeated until all 5 concentrations have been added. The KD of the binding interaction between the ligand and protein was determined by using the affinity curve fitting function in the P4SPR Control software.

Experiment [4] addresses T2, wild type HRAS. In words: 19F DLB score, wild type HRAS. How it is done: as §4, §5, §6
Experiment [5] concerns the target T3, KRAS^G12D-GDP (Homo sapiens (Human), UniProt P01116, G12D). As to the kind of experiment: 19F T2-CPMG score, KRAS^G12D-GDP. The protocol: as §4, §5
(§7) The activity of compounds of the invention regarding KRAS^G12D-GDP was measured in the same as in Example 80. The results obtained with the compounds in the various assays described above are depicted in Table 23.

Experiment [6] deals with T1, HRas^G12V. In words: Dissociation constant by ITC. The protocol:
ITC experiments were performed using a Nano ITC isothermal titration calorimeter from TA Instruments. Experiments were performed in reverse-mode by titrating 50 μL of protein solution at a concentration of 300-600 μM into 350 μL of ligand solution at concentrations between 10-50 μM. Stir rate was 200-250 rpm with 16-25 injections, each at 2-3 μL with 150 seconds between each injection. Data fitting was performed using Nano ITCRun software.
(In general: Isothermal titration calorimetry measures the heat released or taken up as one component is titrated into another.)

The target in the next experiment is GDP-HRas^G12V (Homo sapiens (Human), UniProt P01112, G12V). As to the kind of experiment: Dissociation constant by microscale thermophoresis (MST). The protocol:
MST experiments were performed with a Monolith NT.115 Pico (NanoTemper Technologies, Munich, Germany). […] Data was acquired in PBS buffer with 0.1% pluronic acid. Data was analyzed with the NanoTemper MO.Affinity Analysis software.
A general note: In MST a laser heats a spot of the sample, and binding alters the fluorescence response.

Experiment [7] has as its target T3, KRAS^G12D-GDP. In words: NMR Kd, KRAS^G12D-GDP. To be noted: 1H 1D protein-observed NMR, read-out: 1H 1D PO NMR Kd. How it is done: as §1, §2, §3, §7
Experiment [8] addresses T3, KRAS^G12D-GDP. In words: Overall activity in the various assays, KRAS^G12D-GDP. How it is done: as §7
Experiment [9] addresses T2, wild type HRAS. As to the kind of experiment: NMR Kd, wild type HRAS. How it is done:
as §1, §2, §3, §6

Chain of GDP-HRas^G12V (P01112 1-166 G12V): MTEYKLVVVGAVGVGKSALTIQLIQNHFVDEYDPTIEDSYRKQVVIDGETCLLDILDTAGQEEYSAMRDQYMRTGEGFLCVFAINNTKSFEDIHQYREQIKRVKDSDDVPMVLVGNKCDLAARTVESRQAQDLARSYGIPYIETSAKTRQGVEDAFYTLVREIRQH
T1 sequence (P01112 1-166 G12V): as above
T2 sequence (P01112 whole entry, the tested form may be a part): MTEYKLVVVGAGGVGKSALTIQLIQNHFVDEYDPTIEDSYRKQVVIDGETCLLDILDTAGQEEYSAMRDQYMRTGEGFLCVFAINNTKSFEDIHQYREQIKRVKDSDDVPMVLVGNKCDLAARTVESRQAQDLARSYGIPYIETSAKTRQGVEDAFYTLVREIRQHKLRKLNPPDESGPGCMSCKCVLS

As usually defined, the Kd is the free concentration of one partner at which half of the binding sites on the other are occupied at equilibrium, for simple one-to-one binding. Regarding `CN(C)CC(=O)Nc1cccc(NC(=O)Cc2c[nH]c3cc(F)ccc23)c1` [compound 10097], the Kd is 108 µM on HRas^G12V [1], 31 µM at HRas^G12V [3], 17 to 159 µM at HRas^G12V [6] and 65 to 82.9 µM on GDP-HRas^G12V. Also, the “19F T2-CPMG Score” value at wild type HRAS [2] was “<LLOQ”; at KRAS^G12D-GDP [5], “>LOQ”. Moreover, on wild type HRAS [4], the “19F DLB Score” value is recorded as 7.61.
`O=C(Cc1c[nH]c2cc(F)ccc12)N1CCC(O)CC1` [Compound 10086]: the values for the Kd at KRAS^G12D-GDP [7], on HRas^G12V [1] and on GDP-HRas^G12V were 1900 to 4030 µM, 2370 to 4000 µM and 1810 to 2080 µM, respectively. In addition, the “Activity ranking on KRAS^G12D-GDP (in words)” value on KRAS^G12D-GDP [8] is listed as “most active”. The “19F T2-CPMG Score” value on KRAS^G12D-GDP [5] is “>LOQ”.
Turning to `CN(C)CCOc1cccc(NC(=O)Cc2c[nH]c3cc(F)ccc23)c1` [Compound 10095, N-(3-(2-(dimethylamino)ethoxy)phenyl)-2-(6-fluoro-1H-indol-3-yl)acetamide], the Kd at HRas^G12V [1] is 36 µM; on GDP-HRas^G12V, 19.1 to 23.5 µM. Also, the “19F T2-CPMG Score” value was “<LLOQ” on wild type HRAS [2] and “>LOQ” at KRAS^G12D-GDP [5]. Further, at wild type HRAS [4], the “19F DLB Score” value stood at 4.57.
In the case of `CC(C)N1CCC(NC(=O)Cc2c[nH]c3cc(F)ccc23)CC1` [Compound 10018], the Kd is 5020 to 6250 µM on KRAS^G12D-GDP [7], 3030 to 3700 µM at HRas^G12V [1] and 5180 µM at wild type HRAS [9]. Moreover, the “Activity ranking on KRAS^G12D-GDP (in words)” value at KRAS^G12D-GDP [8] is listed as “most active”. The “19F T2-CPMG Score” value at KRAS^G12D-GDP [5] was found to be 12.20.
